Test results taken from US10357501B2, “Treating conditions associated with increased eotaxin with 25-hydroxyvitamin D3” (DSM IP ASSETS B.V., priority 2010, dated 2019).

Tests used:
[1] = Clinical trial: 25(OH)D levels after oral supplementation; conditions: female, human, in vivo
Method: The objective was studying and comparing the pharmacokinetic characteristics of vitamin D3 and 25-hydroxyvitamin D3 administered to humans. Equimolar quantities of both substances were investigated. The regimen was based on 20 μg/day (or its equivalent on a weekly basis) of 25-hydroxyvitamin D3. For comparative purposes, it was necessary to administer equimolar quantities of either vitamin D3 or 25-hydroxyvitamin D3. In respect to administration of vitamin D3, the dose was considered to be sufficient to overcome background variability and provide and efficacious dose to the participants. […]
Plasma concentrations of 25-hydroxyvitamin D3 (e.g., peak and steady state) were determined by obtaining samples from the subjects at various times after the dosage was ingested. For screening purposes and to establish baseline values, a blood sample was obtained prior to enrollment into the study and the clinical laboratory measured vitamin D3, 25-hydroxyvitamin D3, calcium, creatinine, albumin, and fasting glucose in the serum. […]
Twenty healthy postmenopausal women with 25-Hydroxyvitamin D3 levels below 25 ng/ml and a mean age of 61.5 years (SD ±7.2) were enrolled in this study. […] On 14 visits over 4 months, 25(OH)D levels, and 7 inflammation markers (eotaxin, IL-8, IL-12, IP-10, MCP-1, MP-1β, RANTES) were measured. […]

[2] = considered; no test described; cited from earlier work
[3] = in vivo; cited from earlier work
[4] = ingestion of 250 μg/day as a dietary supplement; cited from earlier work

Compound: C=C1CC[C@H](O)C/C1=C/C=C1\CCC[C@]2(C)[C@@H]([C@H](C)CCCC(C)C)CC[C@@H]12 [Vitamin D3, cholecalciferol]
- Mean 25(OH)D levels [1]: 13.5 ng/mL

Compound: C=C1CC[C@H](O)C/C1=C/C=C1\CCC[C@]2(C)[C@@H]([C@H](C)CCCC(C)(C)O)CC[C@@H]12 [25-Hydroxyvitamin D3, 25-hydroxyvitamin D3]
- activity relative to Vitamin D3 [2]: approximately 3 ×

Compound: 25-hydroxyvitamin D
- blood concentration at which hypercalcemia may occur [3]: greater than 375 nmol/L

Compound: Vitamin D
- blood concentration of 25-hydroxyvitamin D [4]: about 200 nmol/L
